Measured values as given in patent publication US8933113B2 (Merck Sharp & Dohme Corp., priority 2011, dated 2015).

Target: T1, full-length human Mineralocorticoid Receptor (MR) (Homo sapiens, UniProt P08235)
T1 construct: host or cells: PathHunter CHO-K1 cells
T1 sequence (P08235 1-984): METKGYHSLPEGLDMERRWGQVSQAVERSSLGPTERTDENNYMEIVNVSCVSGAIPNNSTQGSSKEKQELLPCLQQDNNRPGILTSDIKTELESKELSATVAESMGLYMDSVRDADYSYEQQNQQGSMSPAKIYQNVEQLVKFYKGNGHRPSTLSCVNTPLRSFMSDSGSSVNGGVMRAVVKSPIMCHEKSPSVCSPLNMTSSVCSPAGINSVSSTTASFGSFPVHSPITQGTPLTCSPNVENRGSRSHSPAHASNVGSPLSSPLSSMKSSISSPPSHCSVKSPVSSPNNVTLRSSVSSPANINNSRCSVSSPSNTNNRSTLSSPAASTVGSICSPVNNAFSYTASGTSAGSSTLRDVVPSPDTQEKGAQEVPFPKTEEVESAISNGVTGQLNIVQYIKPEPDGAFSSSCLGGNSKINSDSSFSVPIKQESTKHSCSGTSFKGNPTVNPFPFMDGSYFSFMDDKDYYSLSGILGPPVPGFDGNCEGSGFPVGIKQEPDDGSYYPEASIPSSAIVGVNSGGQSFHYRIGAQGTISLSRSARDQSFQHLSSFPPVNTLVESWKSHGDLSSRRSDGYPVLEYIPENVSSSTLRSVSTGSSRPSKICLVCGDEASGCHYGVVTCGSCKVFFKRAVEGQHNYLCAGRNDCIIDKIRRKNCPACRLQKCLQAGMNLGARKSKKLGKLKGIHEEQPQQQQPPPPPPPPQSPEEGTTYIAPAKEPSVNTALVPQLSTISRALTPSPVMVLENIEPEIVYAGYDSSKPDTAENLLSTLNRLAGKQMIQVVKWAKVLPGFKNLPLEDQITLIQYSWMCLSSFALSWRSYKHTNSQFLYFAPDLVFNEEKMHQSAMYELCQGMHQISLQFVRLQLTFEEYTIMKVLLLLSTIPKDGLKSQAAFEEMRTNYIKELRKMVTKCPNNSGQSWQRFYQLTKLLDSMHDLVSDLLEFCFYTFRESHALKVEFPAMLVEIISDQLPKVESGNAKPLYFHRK
Assay: human MR NH Pro assay (PathHunter Protein:Protein interaction assay), MR antagonist activity
Type: cell-based
Conditions: PathHunter CHO-K1 cells overexpressing human MR; aldosterone about 0.3 nM; 6 hours at 37° C.; luminescence; read-out: Primary Assay IP rating (IP = inflection point for a given dose-response titration curve)
How it was run: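 PathHunter enzyme-complementation assay in cells of full-length human MR recruitment of a coactivator peptide, run in antagonist mode against aldosterone at about 0.3 to 1.0 nM final. Compounds are in a 10-point, 1:3 series from a 4.4 mM top. Incubation is 6 h at 37° C, then detection reagent for 1 h at RT, with a luminescence read-out.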

IC50 [nM] | Compound
< 100 | CCC(CCCO)(c1ccc(Cl)cc1)n1ccc2c(NS(C)(=O)=O)cccc21 (stereo not shown) [Compound 169, N-(1-(3-(4-chlorophenyl)-6-hydroxyhexan-3-yl)-1H-indol-4-yl)methanesulfonamide]
< 100 | CCC(CCCF)(c1ccc(Cl)cc1)n1ccc2c(NS(C)(=O)=O)cccc21 (stereo not shown) [Compound 170, N-(1-(3-(4-chlorophenyl)-6-fluorohexan-3-yl)-1H-indol-4-yl)methanesulfonamide]
100 to 500 | CCC(/C=C/C(=O)OC)(c1ccc(Cl)cc1)n1ncc2c(NS(C)(=O)=O)cccc21 (stereo not shown) [Compound 171, (E)-methyl 4-(4-chlorophenyl)-4-(4-(methylsulfonamido)-1H-indazol-1-yl)hex-2-enoate]
< 100 | CCC(CCC(C)=O)(c1ccc(Cl)cc1)n1ncc2c(NS(C)(=O)=O)cccc21 (stereo not shown) [Compound 172, N-(1-(3-(4-chlorophenyl)-6-oxoheptan-3-yl)-1H-indazol-4-yl)methanesulfonamide]
100 to 500 | CCC(c1ccc(Cl)cc1)(C(O)COC)n1ccc2c(NS(C)(=O)=O)cccc21 (stereo not shown) [Compound 173, N-(1-(3-(4-chlorophenyl)-2-hydroxy-1-methoxypentan-3-yl)-1H-indol-4-yl)methanesulfonamide]
100 to 500 | CCC(CC)(c1ccc(Cl)cc1)n1ccc2c(NS(C)(=O)=O)cccc21 [Compound 174, N-(1-(3-(4-chlorophenyl)pentan-3-yl)-1H-indol-4-yl)methanesulfonamide]
100 to 500 | C=CC(CC)(c1ccc(Cl)cc1)n1ccc2c(NS(C)(=O)=O)cccc21 (stereo not shown) [Compound 175, N-(1-(3-(4-chlorophenyl)pent-1-en-3-yl)-1H-indol-4-yl)methanesulfonamide]
100 to 500 | CCC(CN)(c1ccc(Cl)cc1)n1ccc2c(NS(C)(=O)=O)cccc21 (stereo not shown) [Compound 177, N-(1-(1-amino-2-(4-chlorophenyl)butan-2-yl)-1H-indol-4-yl)methanesulfonamide]
100 to 500 | CCC(C#N)(c1ccc(Cl)cc1)n1ccc2c(NS(=O)(=O)CC)cccc21 (stereo not shown) [Compound 178, N-(1-(1-(4-chlorophenyl)-1-cyanopropyl)-1H-indol-4-yl)ethanesulfonamide]
< 100 | N-(6-fluoro-1-(2-hydroxy-3-(4-(trfluoromethyl)phenyl)pentan-3-yl)-1H-indazol-4-yl)methanesulfonamide [Compound 112]
